Results reported in patent US4374988A, “4-Heteroarylimidazo-[1,5-A]pyrimidines” (American Cyanamid Company, priority 1981, dated 1983).

Legend:
rats [1] = assay: protection from pentylenetetrazole-induced clonic seizures in rats; format: in vivo, rat
Procedure: The anti-anxiety properties of the novel compounds of the invention have been established in a test which indicates anxiolytic activity by the measure of protection from convulsions resulting from the administration of pentylenetetrazole (sold as METROZOL, Reg. T.M.). Single or graded dosage levels of the test compounds were administered orally or intraperitoneally (in a 2% starch vehicle, containing 5% v/v polyethylene glycol and one to two drops of polysorbate 80) to groups of at least 4 rats. Thirty or 60 minutes after administration, the rats were treated intravenously with pentylenetetrazole at a dosage of 23 mg/kg. of body weight. This dose is estimated to cause clonic seizures in 99% of unprotected rats. A test compound is considered active if it protects 50% or more of the rats from clonic seizures. It has been reported (R. T. Hill and D. H. Tedeschi, "Animal Testing and Screening Procedures in Evaluating Psychotropic Drugs" in "An Introduction to Psychopharmacology", Eds. R. R. Rech and K. E. Moore, Raven Press, New York, pages 237-288 (1971)) that there is a high degree of correlation between antagonism of pentylenetetrazole seizures in rats and anti-anxiety effects in higher mammals.

rats [2] = assay: thirsty rat conflict test (non-conditioned passive avoidance); format: in vivo, rat (Wistar strain)
Excerpt: Another test which has been employed to assess anti-anxiety effects is a non-conditioned passive avoidance procedure described by J. R. Vogel, B. Beer and D. E. Clody, "A Simple and Reliable Conflict Procedure for Testing Anti-Anxiety Agents", Psychopharmacologia, Vol. 21, pages 1-7 (1971). A conflict situation is induced in rats by a modification of this method. The test is referred to herein as the "thirsty rat conflict" test.
Groups of 8 naive, Wistar strain rats, weighing 200-240 g. each, were deprived of water for 48 hours. The test compounds were administered in single or graded, oral or intraperitoneal doses, suspended in distilled water and one drop of polysorbate 80. The control animals received the vehicle alone. After 30 or 60 minutes, each rat was placed in an individual clear plexiglass chamber. Tap water was available ad libitum from a nipple located in a black plexiglass box adjacent to the main chamber. A circuit carrying a 0.7 milliampere AC shocking current was established between the stainless steel grid floor of the chamber and the nipple. After 20 licks of non-shocked drinking, a fixed ratio of a 2-second "shock-on" and 19 licks "shock-off" cycle began and continued for a total of 3 minutes. The number of shocks taken by each rat during a 3-minute interval was recorded and compared to a control group.

brain-specific receptors = assay: inhibition of 3H-benzodiazepine (3H-flunitrazepam) binding to brain-specific receptors; parameters: species or system rat (Wistar strain); settings: 1 μM test compound (activity criterion), rat cortex P2 fraction, 0° C., 30 minutes

SMILES	ED50 (rats [1]; Rattus norvegicus, oral, dosage effective in 50% of the rats, pentylenetetrazole 23 mg/kg i.v., read-out: ED50, resistance to convulsions induced by pentylenetetrazole) [mg/kg]	anxiolytic activity (protection from pentylenetetrazole convulsions) (rats [1]; general statement, oral or intraperitoneal, active if 50% or more of rats protected)	resistance to convulsions induced by pentylenetetrazole (in words) (rats [1]; oral)	anxiolytic activity (thirsty rat conflict test) (rats [2]; general statement, oral or intraperitoneal, active if shocks significantly higher than control (Mann-Whitney U test))	activity in the thirsty rat conflict test (rats [2]; oral, 25 mg./kg.)	inhibition of 3H-benzodiazepine binding (brain-specific receptors) [%]	resistance to convulsions induced by pentylenetetrazole (rats [1]; intraperitoneal, 50 mg./kg., pentylenetetrazole 23 mg/kg i.v.)	activity in the thirsty rat conflict test (rats [2]; intraperitoneal, 25 mg/kg)
N#Cc1ncn2c(-c3cccnc3)ccnc12 [Example 5, 4-(3-Pyridyl)imidazo[1,5-a]pyrimidine-8-carbonitrile]	6.8	shown to possess anxiolytic activity	effective	shown to possess anxiolytic activity	active	19		
N#Cc1ncn2c(-c3ccsc3)ccnc12 [Example 2, 4-(3-Thienyl)imidazo[1,5-a]pyrimidine-8-carbonitrile]						20		
CCOC(=O)c1ncn2c(-c3cccnc3)ccnc12 [Example 15, Ethyl 4-(3-pyridyl)imidazo[1,5-a]pyrimidine-8-carboxylate]					inactive	49		
N#Cc1ncn2c(-c3cccs3)ccnc12 [Example 1, 4-(2-Thienyl)imidazo[1,5-a]pyrimidine-8-carbonitrile]						39	inactive	active
